According to publication PMC6416395, “B1.12: a novel peptide interacting with the extracellular loop of the EBV oncoprotein LMP1” (Scientific Reports, 2019):
“Also recorded” adds a separate entry of the source. Residues, ends and D or L forms follow the SMILES beside them.

Experiments:
HeLa/LMP1 cells = test: Competitive inhibition of phage B1.12 binding to HeLa/LMP1 cells; format: cell-based; conditions: peptide 100 µM, 37 °C 1 hour, triplicate mean
Procedure: Binding of the B1.12 peptide to its target B1 and to HeLa/LMP1 cells was evaluated by a competitive binding assay. For competition on B1 as a target, the B1.12 peptide or the unrelated control peptide were incubated at concentrations of 1, 5, 10, 25, 50 and 100 µM with B1 peptide (100 µl of a solution of 1 mg/mL in NaHCO3) at room temperature for 1 hour. Then the B1.12 phage (2 × 10^10 pfu) was added to each well and incubated for 1 hour. After washing, the bound phage was detected by the anti-M13 antibody as described previously. For the competition test on HeLa cells expressing or not the viral oncoprotein LMP1, cells were seeded into 96-well plates (10^4 cells/well), washed twice in PBS, and fixed with 4% paraformaldehyde for 30 minutes at room temperature. Synthetic peptides at concentrations of 50, 75, 100 and 200 µM were incubated with the cells at 37 °C for 1 hour and the experiment was carried out as described above. All experiments were done in triplicate and the mean values of OD were used to calculate the rate of competitive inhibition according to the following formula: inhibition ratio = (OD control − OD phage)/OD control × 100, where OD control and OD phage represent the OD450 nm values of phage binding on cells incubated with PBS and with the peptide, respectively.

[1] = tested on: B1 peptide (first extracellular loop of LMP1); test: ITC of B1/B1.12 interaction; format: binding, Epstein-Barr virus (EBV); conditions: 30 °C, NaHCO3 buffer 0.1 M pH 5.7
Procedure: For ITC, analysis was performed at 30 °C using an isothermal titration calorimeter (VP-ITC, LLC Microcal Inc., Northampton, MA, USA). Peptides were suspended in NaHCO3 buffer (0.1 M, pH 5.7, after 2 hours of sample equilibration) and the reference cell was filled with the same buffer. B1 peptide (0.2 mM) was placed into 250 μL syringe and 1200 μL of B1.12 peptide (0.01 mM) was placed in the titration cell. The peptide solution was injected into the stirred sample cell containing B1.12 peptide in >20 injections (2 μL per injection) by a computer-controlled pump. The injection lasted 10 seconds with an interval of 120 seconds between successive injections. Heat released with each injection was measured (Differential Potential in µCal/sec) by the calorimeter in dynamic correction mode. Control experiments were performed by tittering the B1 peptide into the buffer solution at the same pH and concentrations with and without the B1 peptide, in order to discriminate the interaction process against the dilution of B1 and its possible self-association, respectively.

pNFκb (pRelA536) = test: Western blot pNFκb (pRelA536) in C666.1 cells; format: cell-based; conditions: 100 µM peptide, 24 hours, C666.1, Western blot, n = 4 biological replicates
Procedure: (§1) Cells were cultured at 80% confluency and then incubated with 100 µM B1.12 peptide for 24 hours. Subsequently, cells were washed twice with cold PBS and scrapped in ice-cold RIPA buffer (50 mM Tris pH 7.4, 5 mM EDTA pH 8.0, 150 mM NaCl, 0.1% SDS, 0.5% NaDOC, 0.5% NP 40) supplemented with 5 mM PMSF. After 30 minutes on ice, cells were sonicated, and cell debris were removed by centrifugation at 15,000 rpm at 4 °C for 15 minutes. Proteins were quantified using the Bradford Protein Assay (Bio-Rad) according to the manufacturer’s specifications. Thirty μg of total proteins were separated on 10% SDS–PAGE and transferred to PVDF membrane (Amersham Hybond-P). The membranes were blocked at 4 °C overnight with PBS 0.1% Tween 20 containing 5 mg/mL skimmed milk, prior to be incubated with pAkt (Biotechne, diluted 1/2500) pRelA536 (Biotechne, diluted 1/1000), and Tubulin (Thermofisher, diluted 1/1000) antibodies for 2 hours at room temperature, followed by incubation with anti-rabbit or anti-mouse conjugated to horseradish peroxidase at room temperature for 1 hour. The target protein band was visualized using the enhanced chemiluminescence detection system (Amersham ECL Prime Western Blotting Detection Reagent) and luminescent bands were visualized using the VERSADOC imaging system. Band densities were assessed by Image-J software.

A20 (TNFAIP3) = test: RT-qPCR A20 expression in C666.1 cells; format: cell-based; conditions: B1.12-treated versus untreated C666.1, RT-qPCR normalised to GAPDH, n = 3 biological replicates
Description: Total RNA from C666.1 cells treated or not with B1.12 and control peptides was extracted using TRIzol reagent. cDNA was synthetized using the reverse transcription kit (Invitrogen), and served as a template for detecting A20 gene expression by Real-time quantitative PCR using SYBR Premix Ex Taq (Tli RNase H Plus, Takara) and using CFX96 (Biorad). The housekeeping gene GAPDH was used as an internal control to normalize the expression levels of the gene. The primers used for the amplification of the A20 gene are as follows: forward: 5′-[…]-3′, and reverse: 5′-GGCGAAATTGGAACCTGA TTCCAAACTT-3′. Relative quantification of mRNA expression was performed by the comparative 2−ΔΔct method to calculate the difference between amplifications of A20 and GAPDH. […]

C666.1 cells = test: Cell cycle analysis, C666.1; format: cell-based; conditions: C666.1, 50 µM peptide
Procedure: Cell cycle analysis of C666.1 and HT29 cells was performed using the FXcycleTm PIi/RNnase staining solution (Invitrogen). Briefly, cells (4 × 10^5) were seeded and grown for 24 hours, and then incubated with serum-free RPMI for another 24 hours (starvation) to decrease cell constitutive signaling. After starvation, cells were incubated or not with 50 µM B1.12 peptide (C666.1 and HT29 cells) or control peptide (C666.1 cells) for 48 hours. Following incubation, cells were washed with PBS, trypsinized and centrifuged at 1200 rpm for 5 minutes. The cell pellet was then washed twice with PBS, and cells were fixed with 5 mL of ethanol 70% for 24 hours at 4 °C. Aliquots of 2 × 10^5 ethanol-fixed cells were then centrifuged for 5 minutes at 450 g, washed with PBS, and then resuspended in Propidium Iodide Reagent and incubated for 30 minutes at room temperature, shielded from light. The data were collected and analyzed by an Attune NxT Flow Cytometer (Thermofisher).

pAkt = test: Western blot pAkt in C666.1 cells; format: cell-based; conditions: 100 µM peptide, 24 hours, C666.1, Western blot, n = 4 biological replicates
Procedure: as §1

## CC(C)C[C@H](NC(=O)[C@H](CC(=O)O)NC(=O)[C@H](CC(C)C)NC(=O)[C@@H]1CCCN1C(=O)[C@H](CS)NC(=O)[C@H](C)N)C(=O)N[C@@H](CCCNC(=N)N)C(=O)N[C@@H](CO)C(=O)N1CCC[C@H]1C(=O)N[C@@H](CS)C(=O)NCC(N)=O [B1.12] (H-ACPLDLRSPCG-NH2; N-terminus and C-terminus assumed)
HeLa/LMP1 cells
  inhibition ratio: 45%
[1]; 2 μL injections of B1 0.2 mM into B1.12 0.01 mM
  number of injections after which exothermic binding reaction ceases: nineteen
[1]; B1 0.2 mM injected into B1.12 0.01 mM
  binding to target B1 (ITC): ITC profile confirmed the binding of the B1.12 peptide to its target B1 peptide
pNFκb (pRelA536)
  pNFκb (pRelA536) expression: a weak change; also recorded: decreased in B1.12-treated-C666.1 compared to those in the untreated or treated with control peptide
A20 (TNFAIP3)
  A20 expression level: the expression of A20 decreased compared to untreated cells; also recorded: the A20 level decreased in the C666.1 cells after B1.12 treatment
C666.1 cells
  cell cycle progression versus untreated (in words): inducing G0/G1 cell cycle arrest
C666.1 cells; propidium iodide FACS, 24 h (48 h elsewhere in the source)
  cells in G0/G1 phase: 73%
pAkt
  pAkt expression: low in B1.12-treated-C666.1 compared to those in the untreated or treated with control peptide; also recorded: decreased in B1.12-treated-C666.1 compared to those in the untreated or treated with control peptide more markedly for pAkt
